From patent US9139570B2, “Solid forms of an antiviral compound” (priority 2012, dated 2015)
“And” between values parts separate entries of the source, which are not always exact repeats. Equal values may be shown once. Read-outs that look alike come from different tables or passages of the source.

What was measured:
[1] = Dynamic vapor sorption (DVS) hygroscopicity; assay type: physicochemical; conditions: for moisture uptake / weight gain (DVS): at 90% relative humidity
[2] = Stable form screen (slurry in solvents, XRPD); assay type: physicochemical; conditions: 2 weeks
Procedure: Approximately 15-60 mg of amorphous (1-{3-[6-(9,9-difluoro-7-{2-[5-(2-methoxycarbonylamino-3-methyl-butyryl)-5-aza-spiro[2.4]hept-6-yl]-3H-imidazol-4-yl}-9H-fluoren-2-yl)-1H-benzoimidazol-2-yl]-2-aza-bicyclo[2.2.1]heptane-2-carbonyl}-2-methyl-propyl)-carbamic acid (HPLC purity of 99.3%) were weighed and transferred to a vial equipped with a mini magnetic stir bar. […] The slurry was allowed to stir for two weeks at room temperature (˜22° C.) and examined periodically.
After two weeks, a sample of 300 μL of the slurry was removed from the vial, transferred to a centrifuge filter (Costar, 0.45 micron) and centrifuged at 1000 rpm for 2 minutes. The solid in the wet cake form were analyzed using XRPD analysis (PANalytical X'Pert PRO X-ray powder diffractometer). This diffractometer uses Cu-Kα radiation at a wavelength of 1.54178 Å, and it operates under reflection mode. Scan range is from 2 to 40 degree 2 theta. The step size is 0.0080 at a scan speed of 0.13°/s, which gives about 5 min per scan. After air drying the small sample, XRPD analysis was performed again to monitor any change in the diffraction pattern between the wet and dry material. Thermogravimetric analysis (TGA) was run on the saturated solution to determine the solubility of the equilibrating solids in the solvent when the solid appeared to be crystalline.

[3] = Photostability of solid forms, photoexposure 0.9 M Lux-hrs, HPLC analysis; assay type: physicochemical
From the text: FIG. 6 compares the photodegradation behaviors of amorphous Compound I (vertical stripes), Compound I Form II (horizontal stripes), and a partially amorphous hydrochloride salt of Compound I (diagonal stripes) during photoexposure at 0.9 M Lux-hrs. The leftmost group of bars represents the overall decrease in HPLC % AN of these three forms of Compound I. The middle group of bars represents the formation of a primary photodegradation impurity resulting from each form of Compound I. The rightmost group of bars similarly represents the formation of a secondary photodegradation impurity that eluted on HPLC at relative retention time (RRT) 1.67.
HPLC analyses of the samples compared the amounts of photodegradation products in each sample. […] For example, Form II of Compound I gave rise to the lowest (2.24% AN) amount of photodegradation in this experiment.
The middle group and rightmost group of bars depict the amounts of two of the major photodegradation impurities formed after the three solid forms of Compound I were photoexposed.

[4] = Dissolution rate / kinetic solubility in water at pH 3
Slurry test in water = assay type: physicochemical
From the text: The source of water is believed to be moisture in the air during material transfer.

[5] = Solubility of Compound I over a greater pH range; conditions: aqueous buffer

COC(=O)N[C@H](C(=O)N1CC2(CC2)C[C@H]1c1ncc(-c2ccc3c(c2)C(F)(F)c2cc(-c4ccc5nc([C@@H]6[C@H]7CC[C@H](C7)N6C(=O)[C@@H](NC(=O)OC)C(C)C)[nH]c5c4)ccc2-3)[nH]1)C(C)C [Compound I Form V, (1-{3-[6-(9,9-difluoro-7-{2-[5-(2-methoxycarbonylamino-3-methyl-butyryl)-5-aza-spiro[2.4]hept-6-yl]-3H-imidazol-4-yl}-9H-fluoren-2-yl)-1H-benzoimidazol-2-yl]-2-aza-bicyclo[2.2.1]heptane-2-carbonyl}-2-methyl-propyl)-carbamic acid methyl ester ethyl acetate solvate]
hygroscopicity by DVS (words) ([1]; listed as Form V): non-hygroscopic

COC(=O)N[C@H](C(=O)N1CC2(CC2)C[C@H]1c1ncc(-c2ccc3c(c2)C(F)(F)c2cc(-c4ccc5nc([C@@H]6[C@H]7CC[C@H](C7)N6C(=O)[C@@H](NC(=O)OC)C(C)C)[nH]c5c4)ccc2-3)[nH]1)C(C)C [Compound I Form XV, (1-{3-[6-(9,9-difluoro-7-{2-[5-(2-methoxycarbonylamino-3-methyl-butyryl)-5-aza-spiro[2.4]hept-6-yl]-3H-imidazol-4-yl}-9H-fluoren-2-yl)-1H-benzoimidazol-2-yl]-2-aza-bicyclo[2.2.1]heptane-2-carbonyl}-2-methyl-propyl)-carbamic acid methyl ester]
hygroscopicity by DVS (words) ([1]; listed as Form XV): non-hygroscopic

COC(=O)N[C@H](C(=O)N1CC2(CC2)C[C@H]1c1ncc(-c2ccc3c(c2)C(F)(F)c2cc(-c4ccc5nc([C@@H]6[C@H]7CC[C@H](C7)N6C(=O)[C@@H](NC(=O)OC)C(C)C)[nH]c5c4)ccc2-3)[nH]1)C(C)C [Compound I D-tartrate, (1-{3-[6-(9,9-difluoro-7-{2-[5-(2-methoxycarbonylamino-3-methyl-butyryl)-5-aza-spiro[2.4]hept-6-yl]-3H-imidazol-4-yl}-9H-fluoren-2-yl)-1H-benzoimidazol-2-yl]-2-aza-bicyclo[2.2.1]heptane-2-carbonyl}-2-methyl-propyl)-carbamic acid D-tartrate]
moisture uptake / weight gain (DVS) [1]: less than 3%
physical form by XRPD after slurry in various solvents [2]: physical form did not change

COC(=O)N[C@H](C(=O)N1CC2(CC2)C[C@H]1c1ncc(-c2ccc3c(c2)C(F)(F)c2cc(-c4ccc5nc([C@@H]6[C@H]7CC[C@H](C7)N6C(=O)[C@@H](NC(=O)OC)C(C)C)[nH]c5c4)ccc2-3)[nH]1)C(C)C [Compound I Form II, (1-{3-[6-(9,9-difluoro-7-{2-[5-(2-methoxycarbonylamino-3-methyl-butyryl)-5-aza-spiro[2.4]hept-6-yl]-3H-imidazol-4-yl}-9H-fluoren-2-yl)-1H-benzoimidazol-2-yl]-2-aza-bicyclo[2.2.1]heptane-2-carbonyl}-2-methyl-propyl)-carbamic acid methyl ester monoacetone solvate]
photostability compared with amorphous Compound I and partially amorphous HCl salt [3]: best photostability among the three forms compared
overall decrease in HPLC % AN (amount of photodegradation) ([3]; solid): 2.24 % AN
dissolution rate ranking [4]: slowest dissolution rate

COC(=O)N[C@H](C(=O)N1CC2(CC2)C[C@H]1c1ncc(-c2ccc3c(c2)C(F)(F)c2cc(-c4ccc5nc([C@@H]6[C@H]7CC[C@H](C7)N6C(=O)[C@@H](NC(=O)OC)C(C)C)[nH]c5c4)ccc2-3)[nH]1)C(C)C [Compound I Form VIII, (1-{3-[6-(9,9-difluoro-7-{2-[5-(2-methoxycarbonylamino-3-methyl-butyryl)-5-aza-spiro[2.4]hept-6-yl]-3H-imidazol-4-yl}-9H-fluoren-2-yl)-1H-benzoimidazol-2-yl]-2-aza-bicyclo[2.2.1]heptane-2-carbonyl}-2-methyl-propyl)-carbamic acid methyl ester]
water absorbed (DVS) [1]: roughly one equivalent of water
stability in water (slurry test) (Slurry test in water): stable in water

COC(=O)N[C@H](C(=O)N1CC2(CC2)C[C@H]1c1ncc(-c2ccc3c(c2)C(F)(F)c2cc(-c4ccc5nc([C@@H]6[C@H]7CC[C@H](C7)N6C(=O)[C@@H](NC(=O)OC)C(C)C)[nH]c5c4)ccc2-3)[nH]1)C(C)C [Compound I Form III, (1-{3-[6-(9,9-difluoro-7-{2-[5-(2-methoxycarbonylamino-3-methyl-butyryl)-5-aza-spiro[2.4]hept-6-yl]-3H-imidazol-4-yl}-9H-fluoren-2-yl)-1H-benzoimidazol-2-yl]-2-aza-bicyclo[2.2.1]heptane-2-carbonyl}-2-methyl-propyl)-carbamic acid methyl ester]
moisture uptake / weight gain (DVS) ([1]; listed as Form III): less than 0.3%
hygroscopicity by DVS (words) ([1]; listed as Form III): nonhygroscopic

COC(=O)N[C@H](C(=O)N1CC2(CC2)C[C@H]1c1ncc(-c2ccc3c(c2)C(F)(F)c2cc(-c4ccc5nc([C@@H]6[C@H]7CC[C@H](C7)N6C(=O)[C@@H](NC(=O)OC)C(C)C)[nH]c5c4)ccc2-3)[nH]1)C(C)C [Compound I, (1-{3-[6-(9,9-difluoro-7-{2-[5-(2-methoxycarbonylamino-3-methyl-butyryl)-5-aza-spiro[2.4]hept-6-yl]-3H-imidazol-4-yl}-9H-fluoren-2-yl)-1H-benzoimidazol-2-yl]-2-aza-bicyclo[2.2.1]heptane-2-carbonyl}-2-methyl-propyl)-carbamic acid methyl ester]
solubility [5]: < 1 µg/mL

COC(=O)N[C@H](C(=O)N1CC2(CC2)C[C@H]1c1ncc(-c2ccc3c(c2)C(F)(F)c2cc(-c4ccc5nc([C@@H]6[C@H]7CC[C@H](C7)N6C(=O)[C@@H](NC(=O)OC)C(C)C)[nH]c5c4)ccc2-3)[nH]1)C(C)C [amorphous Compound I]
hygroscopicity by DVS (words) [1]: hygroscopic
moisture induced phase transformation ([1]; any humidity level): does not undergo moisture induced phase transformation
moisture uptake / weight gain (DVS) [1]: 5.4% and 5.6%
